“Also recorded” adds a separate entry of the source.

Data set [1] concerns the target T1, histamine H2-receptor (isolated guinea pig right atrium) (Cavia porcellus, UniProt P47747).
T1 construct: All other tissue was carefully trimmed away, leaving only the right atrium; from tissue; host or cells: isolated right atrium of guinea pig (Hartley strain) heart
Put plainly: Histamine H2-receptor antagonism: histamine-induced chronotropic response of isolated guinea pig right atrium. Conditions: for ED50 of histamine (95% CL): histamine ED50 for increase in heart rate, 10^-6 M propranolol; for ED50 of histamine (95% CL) / Slope (95% CL): alone (control) or in presence of 10^-6 M compound, 95% CL in brackets; for histamine H2-receptor antagonist activity / slope / shift of the histamine log dose-response curve in presence of compound: result in words; for histamine H2-receptor antagonist activity: 10^-6 M, guinea pig right atrium; for Slope (95% CL): slope of histamine log dose-response regression line; for ED50 of histamine on the right atrium: histamine alone or with 10^-6 M antagonist, ± as printed in text. The procedure: Guinea pigs (Hartley strain) of either sex (400-700 g) were allowed at least two weeks acclimation period. The animals were housed two per cage in wire-meshed bottom stainless steel cages in animal quarters maintained on a 12 hour light:12 hour dark cycle with ambient temperature of approximately 24° C. Food (Ralston-Purina guinea pig chow #5025) and water were provided ad libitum.
(§1) The animals were stunned by a blow to the head and the heart was quickly removed and placed in Tyrode's solution (composition in g/L of distilled water: NaCl, 8.00; KCl, 0.20; MgSO4.7 H2 O, 0.10; CaCl2, 0.20; NaH2 PO4, 0.05; NaHCO3, 1.00; glucose, 1.00) at room temperature. All other tissue was carefully trimmed away, leaving only the right atrium. The base of the atrium was attached to a fixed pin in a 50 mL Magnus bath of the overflow type, while the atrial apex was similarly connected to a physiograph (Narco Bio-Systems) via a photoelectric force transducer (Narco Bio-Systems, sensitivity=0.05 g/cm). A 400 mg tension was constantly applied to the tissue. The Magnus bath was surrounded by water maintained at 37° C. with a constant temperature circulating pump. The bath was continually oxygenated (95% O2, 5% CO2) via a sintered glass gas delivery tube directly beneath the tissue support base.
Propanolol (1×10^-6 M) was added to each preparation in order to eliminate the influence of endogenously stored catecholamine release. Following the addition of propanolol, test compound was added and the tissue was allowed to equilibrate for 30 minutes.
Solutions of the test compounds were similarly prepared.
A straight line was fitted to the data points of each determination within each group by linear regression analysis. The slope and the ED50 were calculated from the regression line, the slopes and ED50 values of each group were averaged, and the standard deviations were calculated. Calculation of the linear regression gave values for the correlation coefficient (r) slope, average of x values, average of y values, and log ED50. With this information a straight line representing a mean of the data from the separate determinations of each group could be plotted, i.e. a straight line passing through the mean x value and the mean y value and having the mean slope. The 95 percent confidence limits were calculated using the following formula: confidence limits=±ts√N where t=Student's t value, s=standard deviation, and N=number of determinations.

Data set [2] deals with histamine H1-receptor (isolated guinea pig ileum) (Cavia porcellus, UniProt P31389). Put plainly: Histamine H1-receptor antagonism: histamine-induced contraction of isolated guinea pig ileum. Conditions: result in words, 1×10^-6 M. As to the method: Compounds 11, 17, 18, and 19 were screened for H1 -antihistaminic activity by observing if any significant blockage of histamine-induced contraction of the isolated guinea pig ileum occurred. After sacrificing the guinea pig by a blow to the head, longitudinal segments of the terminal ileum were removed and freed of mesentery and blood vessels. The same apparatus and physiological solution employed in the atrial preparation were used in these experiments. The tissue was loaded with a 500 mg tension and adjustments were made repeatedly until the baseline stabilized at this tension load. Atropine sulfate (1×10^-6 M) was added to block the influence of endogenously stored acetylcholine and the preparation was allowed to equilibrate for 15 minutes before any other compounds were added. The concentration of test compound used was 1×10^-6 M. Visual determination of the absence of significant reduction in histamine-induced contractions of the ileum in the presence and absence of each test compound was interpreted as an absence of H1 -antihistaminic activity. Generally, H1 -antagonism is considered to be potent if significant reduction in ileal contractility occurs with antagonist concentrations less than micromolar.
histamine H1-receptor (isolated guinea pig ileum), sequence (P31389 whole entry): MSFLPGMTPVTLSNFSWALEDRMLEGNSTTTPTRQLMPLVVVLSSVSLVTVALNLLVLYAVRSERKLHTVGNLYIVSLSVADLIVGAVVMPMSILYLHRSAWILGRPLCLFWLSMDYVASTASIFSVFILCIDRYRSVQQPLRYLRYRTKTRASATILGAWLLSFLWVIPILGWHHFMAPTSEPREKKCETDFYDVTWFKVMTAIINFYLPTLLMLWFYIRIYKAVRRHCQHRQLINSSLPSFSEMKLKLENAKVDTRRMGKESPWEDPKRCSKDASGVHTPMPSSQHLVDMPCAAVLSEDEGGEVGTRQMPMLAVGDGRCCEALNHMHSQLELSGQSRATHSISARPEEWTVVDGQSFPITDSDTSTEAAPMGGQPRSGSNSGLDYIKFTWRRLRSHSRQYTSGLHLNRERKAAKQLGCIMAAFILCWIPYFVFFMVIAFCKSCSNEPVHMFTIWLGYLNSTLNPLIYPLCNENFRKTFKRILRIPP

A further data set has as its system peptic ulcers. Conditions: cited from earlier work.
For a further data set, the system named is isolated right atrium. Put plainly: Agonist activity: effect of compound alone on heart rate or force of isolated right atrium. Further details: species or system guinea pig. Particulars: cumulative additions, 10^-5 to 10^-3 M. The procedure:
as §1
A KB value was not calculated since the utility of these values is contingent upon the presence of competitive inhibition. […] A non-competitive component of the antagonism would be expected to depress the curve. […] An additional experiment adding only 11 to the bath was carried out in an attempt to detect possible interfering agonist activity. […] The reason for this atypical curve is not known.

Data set [3] has as its system histamine-induced gastric acid secretion. Conditions: dogs; cited from earlier work.
The test system of data set [4] is H2-receptor (guinea pig isolated right atrium). Conditions: cited from earlier work.
The target of the next data set is H2-receptor. Particulars: previously reported; read-out: KB (apparent dissociation constant), previously reported; cited from earlier work.

T1 sequence (P47747 whole entry): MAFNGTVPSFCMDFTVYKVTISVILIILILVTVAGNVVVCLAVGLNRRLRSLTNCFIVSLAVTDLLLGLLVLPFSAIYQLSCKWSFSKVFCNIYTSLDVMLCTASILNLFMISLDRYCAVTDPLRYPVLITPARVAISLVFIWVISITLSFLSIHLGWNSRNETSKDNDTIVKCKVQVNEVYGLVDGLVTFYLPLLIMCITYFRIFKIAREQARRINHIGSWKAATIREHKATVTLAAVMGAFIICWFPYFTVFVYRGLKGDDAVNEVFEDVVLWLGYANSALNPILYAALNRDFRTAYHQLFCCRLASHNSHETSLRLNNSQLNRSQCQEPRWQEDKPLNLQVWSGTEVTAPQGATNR

In the case of `CNC(=S)N[C@H]1C[C@H]2CC[C@@H](C1)N2Cc1nc[nH]c1C` [Compound 17, N-Methyl-N'-[8-(5-methylimidazol-4-yl)methyl-1αH,5αH-nortropan-3α-yl]thiourea], in data set [1], the “ED50 of histamine (95% CL)” value is reported as 11.0 (4.37-27.5) × 10^-7 M, the “histamine H2-receptor antagonist activity” value is on record as “without any significant activity; also recorded: None of these compounds demonstrated significant histamine antagonist activity” and the “Slope (95% CL)” value was 0.64 (0.18-1.10). For the same compound, in data set [2], the H1-antihistaminic activity result is “None of these compounds demonstrated significant histamine antagonist activity”.

For `CN/C(=N/CCSCc1nc[nH]c1C)NC#N` [cimetidine, reference compound], the “safety in clinical use” value with peptic ulcers is “generally a safe agent”. In data set [1], the “ED50 of histamine (95% CL)” value is recorded as 49.0 (43.7-55.0) × 10^-7 M, the “ED50 of histamine on the right atrium” value is given as 49.0±12.0 ×10^-7 M, the “histamine H2-receptor antagonist activity” value is recorded as “significant antagonism of the chronotropic effect of histamine” and the “Slope (95% CL)” value is recorded as 0.67 (0.28-1.06).

With `CNC(=NC#N)N[C@H]1C[C@H]2CC[C@@H](C1)N2Cc1nc[nH]c1C` [Compound 18, N"-Cyano-N-methyl-N'-[8-(5-methylimidazol-4-yl)methyl-1αH,5αH-nortropan-3α-yl]guanidine], in data set [1], the “ED50 of histamine (95% CL)” value is on record as 11.0 (5.01-24.0) × 10^-7 M, the “histamine H2-receptor antagonist activity” value is “without significant activity; also recorded: None of these compounds demonstrated significant histamine antagonist activity” and the “Slope (95% CL)” value is listed as 0.64 (0.18-1.10). The H1-antihistaminic activity entry in data set [2] was “None of these compounds demonstrated significant histamine antagonist activity”.

Consider `CNC(=S)N[C@@H]1C[C@H]2CC[C@@H](C1)N2Cc1nc[nH]c1C` [Compound 11, N-Methyl-N'-[8-(5-methylimidazol-4-yl)methyl-1αH,5αH-nortropan-3β-yl]thiourea], for which, in data set [1] (10^-6 M compound), the “maximum response obtained with histamine in presence of compound” value is 100% and the “slope / shift of the histamine log dose-response curve in presence of compound” value is given as “significantly steeper (P<0.05) than for metiamide; also recorded: shifted to higher concentrations”. For the same compound, in data set [1], the “ED50 of histamine (95% CL)” value was 40.7 (27.5-60.3) × 10^-7 M, the “histamine H2-receptor antagonist activity” value is listed as “active; also recorded: approximately the same antagonist activity as metiamide” and the “Slope (95% CL)” value is given as 0.99 (0.95-1.03). Besides, the “histamine H2-receptor antagonist activity” value in data set [1] (listed as β-isomer) is “high H2 -antagonist activity”. Besides, the H1-antihistaminic activity entry in data set [2] is given as “none of these compounds demonstrated significant H1 -antihistiminic activity”. For the same compound, the “effect on heart rate or force of isolated right atrium, compound alone” value in the data set with isolated right atrium was “without effect on heart rate or force”.

Take `CNC(=NC#N)N[C@@H]1C[C@H]2CC[C@@H](C1)N2Cc1nc[nH]c1C` [Compound 19, N"-Cyano-N-methyl-N'-[8-(5-methylimidazol-4-yl)methyl-1αH,5αH-nortropan-3β-yl]guanidine]: in data set [1], the “ED50 of histamine (95% CL)” value was 6.92 (0.22-138.0) × 10^-7 M, the “histamine H2-receptor antagonist activity” value is recorded as “without significant activity; also recorded: None of these compounds demonstrated significant histamine antagonist activity” and the “Slope (95% CL)” value was 0.58 (0.23-0.93). Moreover, the H1-antihistaminic activity result in data set [2] was “None of these compounds demonstrated significant histamine antagonist activity”.

In the case of `CNC(=C[N+](=O)[O-])NCCSCc1ccc(CN(C)C)o1` [Ranitidine], the “prevention of histamine-induced gastric acid secretion” value in data set [3] was “more potent than cimetidine”. Further, the H2 antagonism entry in data set [4] is “competitive antagonist, more potent than cimetidine”.

Turning to `CNC(=S)NCCSCc1nc[nH]c1C` [metiamide, reference compound], the “healing of peptic ulcers” value in the data set on peptic ulcers (clinical trials) is given as “effective in promoting the healing of peptic ulcers”. The “safety in clinical use” value in the data set on peptic ulcers is “found to produce agranulocytosis”. In data set [1] (KB=[B]/(dose ratio-1), 10^-6 M antagonist, read-out: KB (apparent dissociation constant)), the Kb worked out at 200 nM. Moreover, in data set [1], the “ED50 of histamine (95% CL)” value is listed as 49.0 (30.9-77.6) × 10^-7 M, the “ED50 of histamine on the right atrium” value was 49.0±12.0 ×10^-7 M, the “histamine H2-receptor antagonist activity” value is “significant antagonism of the chronotropic effect of histamine” and the “Slope (95% CL)” value was 0.47 (0.41-0.53). Moreover, in data set [1] (10^-6 M compound), the “slope / shift of the histamine log dose-response curve in presence of compound” value is given as “parallel shift of the dose-response curves of histamine”. The Kb on H2-receptor is 920 nM.

Regarding `NCCc1c[nH]cn1` [histamine, reference compound], in data set [1], the “Slope (95% CL)” value is given as 0.63 (0.50-0.76).

The values above are taken from patent publication US4432983A (Research Corporation, priority 1981, dated 1984).
